Measurements from patent US9028797B2, “Composite body for antigen or drug delivery” (priority 2010, dated 2015).

Tests used:
[1] = tested on: dendritic cell line, DC2.4 cell; test: Cellular uptake of fluorescently labeled BSA, fluorescence microscopy (Example 3); format: cell-based; settings: incubated 2 hr, imaged 22 hr later
Protocol: As a model protein, bovine serum albumin (BSA) was fluorescently labeled with rhodamine B isothiocyanate and used. A BSA/BAC/γ-PGA complex prepared using benzalkonium chloride (BAC) and γ-PGA with BSA or BSA was added to a dendritic cell line, DC2.4 cell, and the mixture was incubated for 2 hr. The cells were washed and fluorescence images of the cell were measured by a fluorescence microscope 22 hr later.

OVA = test: Antibody titer to OVA by ELISA in serum of immunized mice (Example 13); format: in vivo; settings: mouse serum 2 weeks after final immunization; every other week, 4 times
Protocol: OVA/BK/γ-PGA complex was constructed using ovalbumin (OVA), benzalkonium chloride (BK) and γ-PGA. OVA alone, benzalkonium chloride and γ-PGA (vector alone), and OVA/BK/γ-PGA complex were administered to mice every other week, 4 times in total for immunization. After 2 weeks from the final immunization, the serum was collected, and the antibody titer to OVA was measured by ELISA. For the measurement of the antibody titer, an HRP-labeled goat-derived anti-mouse IgG antibody was used as the secondary antibody.

[2] = tested on: OVA-expressing cancer cell (EG7); test: Tumor growth of intradermally transplanted OVA-expressing cancer cell after immunization (Example 14); format: in vivo, mice; settings: EG7 intradermally transplanted 2 weeks after final immunization
Protocol: OVA/BK/γ-PGA complex was constructed using ovalbumin (OVA), benzalkonium chloride (BK) and γ-PGA. To the mice were administered OVA alone, benzalkonium chloride and γ-PGA (vector alone), and OVA/BK/γ-PGA complex every other week, 4 times in total. After 2 weeks from the final immunization, OVA-expressing cancer cell (EG7) was intradermally transplanted, and the tumor growth after transplantation was observed.

| Substance | cellular uptake by dendritic cell (fluorescence of BSA) [1] | antibody titer to OVA (immunity induction effect) (OVA) | tumor growth suppressive effect [2] |
| --- | --- | --- | --- |
| bovine serum albumin [BSA] | not observed | – | – |
| ovalbumin [ovalbumin antigen alone] | – | did not show an immunity induction effect | did not show a tumor growth suppressive effect |
